Assays:
Test in all cases: relative viability (nuclei count vs DMSO), 5 days (fraction); higher = more cells survive
201T = tested on: 201T
Summary of the method: (§1)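 Cells from lung cancer lines were seeded into 1536-well plates and, one day later, dosed by pin tool. Treatments were either a single drug or a fixed dose of an anchor drug with five library-drug doses (not always all listed) in √10 steps. After 5 days, nuclei were stained in a one-step fixation (final 0.05% Triton X-100, 1% formaldehyde, 1 ug/ml Hoechst) and counted on 4× images, and relative viability is the treated-to-vehicle nuclei ratio, as the median of duplicate plates.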

COR-L 105 = tested on: COR-L 105
Summary of the method: as §1

ChaGo-K-1 = tested on: ChaGo-K-1
Summary of the method: as §1

EPLC-272H = tested on: EPLC-272H
Summary of the method: as §1

H3255 = tested on: H3255
Summary of the method: as §1

HCC-78 = tested on: HCC-78
Summary of the method: as §1

HCC-827 = tested on: HCC-827
Summary of the method: as §1

LC-2-ad = tested on: LC-2-ad
Summary of the method: as §1

LCLC-97TM1 = tested on: LCLC-97TM1
Summary of the method: as §1

NCI-H1666 = tested on: NCI-H1666
Summary of the method: as §1

NCI-H1915 = tested on: NCI-H1915
Summary of the method: as §1

NCI-H2087 = tested on: NCI-H2087
Summary of the method: as §1

NCI-H2126 = tested on: NCI-H2126
Summary of the method: as §1

NCI-H2347 = tested on: NCI-H2347
Summary of the method: as §1

NCI-H23 = tested on: NCI-H23
Summary of the method: as §1

NCI-H2405 = tested on: NCI-H2405
Summary of the method: as §1

NCI-H520 = tested on: NCI-H520
Summary of the method: as §1

NCI-H647 = tested on: NCI-H647
Summary of the method: as §1

NCI-H650 = tested on: NCI-H650
Summary of the method: as §1

NCI-H661 = tested on: NCI-H661
Summary of the method: as §1

PC-14 = tested on: PC-14
Summary of the method: as §1

RERF-LC-KJ = tested on: RERF-LC-KJ
Summary of the method: as §1

Work on CCN(CC)CCCCNc1ncc2cc(-c3cc(OC)cc(OC)c3)c(NC(=O)NC(C)(C)C)nc2n1 + Cc1cc(Nc2cc(N3CCN(C)CC3)nc(Sc3ccc(NC(=O)C4CC4)cc3)n2)n[nH]1 [Tozasertib] (partner 0.1 µM) yielded a relative viability (201T; first compound 0.01 µM) of 0.995, a relative viability (201T; first compound 0.03162 µM) of 0.992 and a relative viability (201T; first compound 0.1 µM) of 0.979. It also gave a relative viability (201T; first compound 0.3162 µM) of 1.02, a relative viability (201T; first compound 1 µM) of 0.721 and a relative viability (COR-L 105; first compound 0.01 µM) of 0.366. The relative viability (COR-L 105; first compound 0.03162 µM) was 0.345, the relative viability (COR-L 105; first compound 0.1 µM) was 0.374 and the relative viability (COR-L 105; first compound 0.3162 µM) was 0.354. It also gave a relative viability (COR-L 105; first compound 1 µM) of 0.354, a relative viability (ChaGo-K-1; first compound 0.01 µM) of 0.233 and a relative viability (ChaGo-K-1; first compound 0.03162 µM) of 0.213. It also gave a relative viability (ChaGo-K-1; first compound 0.1 µM) of 0.223, a relative viability (ChaGo-K-1; first compound 0.3162 µM) of 0.242 and a relative viability (ChaGo-K-1; first compound 1 µM) of 0.219. For the same compound, the relative viability (EPLC-272H; first compound 0.01 µM) was 0.282, the relative viability (EPLC-272H; first compound 0.03162 µM) was 0.314 and the relative viability (EPLC-272H; first compound 0.1 µM) was 0.279. It also gave a relative viability (EPLC-272H; first compound 0.3162 µM) of 0.212, a relative viability (EPLC-272H; first compound 1 µM) of 0.234 and a relative viability (H3255; first compound 0.01 µM) of 0.91. The relative viability (H3255; first compound 0.03162 µM) was 0.654, the relative viability (H3255; first compound 0.1 µM) was 0.544 and the relative viability (H3255; first compound 0.3162 µM) was 0.607. It also gave a relative viability (H3255; first compound 1 µM) of 0.585, a relative viability (HCC-78; first compound 0.01 µM) of 0.433 and a relative viability (HCC-78; first compound 0.03162 µM) of 0.399. It also gave a relative viability (HCC-78; first compound 0.1 µM) of 0.507, a relative viability (HCC-78; first compound 0.3162 µM) of 0.55 and a relative viability (HCC-78; first compound 1 µM) of 0.446. It also gave a relative viability (HCC-827; first compound 0.01 µM) of 0.536, a relative viability (HCC-827; first compound 0.03162 µM) of 0.394 and a relative viability (HCC-827; first compound 0.1 µM) of 0.423. For the same compound, the relative viability (HCC-827; first compound 0.3162 µM) was 0.547, the relative viability (HCC-827; first compound 1 µM) was 0.396 and the relative viability (LC-2-ad; first compound 0.01 µM) was 0.416. It also gave a relative viability (LC-2-ad; first compound 0.03162 µM) of 0.467, a relative viability (LC-2-ad; first compound 0.1 µM) of 0.433 and a relative viability (LC-2-ad; first compound 0.3162 µM) of 0.483. It also gave a relative viability (LC-2-ad; first compound 1 µM) of 0.453, a relative viability (LCLC-97TM1; first compound 0.01 µM) of 0.236 and a relative viability (LCLC-97TM1; first compound 0.03162 µM) of 0.268. It also gave a relative viability (LCLC-97TM1; first compound 0.1 µM) of 0.255, a relative viability (LCLC-97TM1; first compound 0.3162 µM) of 0.34 and a relative viability (LCLC-97TM1; first compound 1 µM) of 0.236. The relative viability (NCI-H1666; first compound 0.01 µM) was 0.529, the relative viability (NCI-H1666; first compound 0.03162 µM) was 0.635 and the relative viability (NCI-H1666; first compound 0.1 µM) was 0.673. For the same compound, the relative viability (NCI-H1666; first compound 0.3162 µM) was 0.672, the relative viability (NCI-H1666; first compound 1 µM) was 0.614 and the relative viability (NCI-H1915; first compound 0.01 µM) was 0.464. For the same compound, the relative viability (NCI-H1915; first compound 0.03162 µM) was 0.489, the relative viability (NCI-H1915; first compound 0.1 µM) was 0.48 and the relative viability (NCI-H1915; first compound 0.3162 µM) was 0.461. The relative viability (NCI-H1915; first compound 1 µM) was 0.348, the relative viability (NCI-H2087; first compound 0.01 µM) was 0.243 and the relative viability (NCI-H2087; first compound 0.03162 µM) was 0.282. For the same compound, the relative viability (NCI-H2087; first compound 0.1 µM) was 0.25, the relative viability (NCI-H2087; first compound 0.3162 µM) was 0.236 and the relative viability (NCI-H2087; first compound 1 µM) was 0.251. It also gave a relative viability (NCI-H2126; first compound 0.01 µM) of 0.861, a relative viability (NCI-H2126; first compound 0.03162 µM) of 0.859 and a relative viability (NCI-H2126; first compound 0.1 µM) of 1.1. For the same compound, the relative viability (NCI-H2126; first compound 0.3162 µM) was 0.864, the relative viability (NCI-H2126; first compound 1 µM) was 0.798 and the relative viability (NCI-H2347; first compound 0.01 µM) was 0.509. For the same compound, the relative viability (NCI-H2347; first compound 0.03162 µM) was 0.508, the relative viability (NCI-H2347; first compound 0.1 µM) was 0.718 and the relative viability (NCI-H2347; first compound 0.3162 µM) was 0.607. It also gave a relative viability (NCI-H2347; first compound 1 µM) of 0.551, a relative viability (NCI-H23; first compound 0.01 µM) of 0.408 and a relative viability (NCI-H23; first compound 0.03162 µM) of 0.405. The relative viability (NCI-H23; first compound 0.1 µM) was 0.352, the relative viability (NCI-H23; first compound 0.3162 µM) was 0.301 and the relative viability (NCI-H23; first compound 1 µM) was 0.339. It also gave a relative viability (NCI-H2405; first compound 0.01 µM) of 0.729, a relative viability (NCI-H2405; first compound 0.03162 µM) of 0.737 and a relative viability (NCI-H2405; first compound 0.1 µM) of 0.699. For the same compound, the relative viability (NCI-H2405; first compound 0.3162 µM) was 0.733, the relative viability (NCI-H2405; first compound 1 µM) was 0.695 and the relative viability (NCI-H520; first compound 0.01 µM) was 0.383. The relative viability (NCI-H520; first compound 0.03162 µM) was 0.452, the relative viability (NCI-H520; first compound 0.1 µM) was 0.486 and the relative viability (NCI-H520; first compound 0.3162 µM) was 0.388. It also gave a relative viability (NCI-H520; first compound 1 µM) of 0.261, a relative viability (NCI-H647; first compound 0.01 µM) of 0.265 and a relative viability (NCI-H647; first compound 0.03162 µM) of 0.289. The relative viability (NCI-H647; first compound 0.1 µM) was 0.113, the relative viability (NCI-H647; first compound 0.3162 µM) was 0.332 and the relative viability (NCI-H647; first compound 1 µM) was 0.223. The relative viability (NCI-H650; first compound 0.01 µM) was 0.714, the relative viability (NCI-H650; first compound 0.03162 µM) was 0.757 and the relative viability (NCI-H650; first compound 0.1 µM) was 0.765. The relative viability (NCI-H650; first compound 0.3162 µM) was 0.704, the relative viability (NCI-H650; first compound 1 µM) was 0.66 and the relative viability (NCI-H661; first compound 0.01 µM) was 0.38. For the same compound, the relative viability (NCI-H661; first compound 0.03162 µM) was 0.327, the relative viability (NCI-H661; first compound 0.1 µM) was 0.366 and the relative viability (NCI-H661; first compound 0.3162 µM) was 0.36. The relative viability (NCI-H661; first compound 1 µM) was 0.36, the relative viability (PC-14; first compound 0.01 µM) was 0.689 and the relative viability (PC-14; first compound 0.03162 µM) was 0.578. For the same compound, the relative viability (PC-14; first compound 0.1 µM) was 0.62, the relative viability (PC-14; first compound 0.3162 µM) was 0.685 and the relative viability (PC-14; first compound 1 µM) was 0.598. For the same compound, the relative viability (RERF-LC-KJ; first compound 0.01 µM) was 0.547, the relative viability (RERF-LC-KJ; first compound 0.03162 µM) was 0.617 and the relative viability (RERF-LC-KJ; first compound 0.1 µM) was 0.51. For the same compound, the relative viability (RERF-LC-KJ; first compound 0.3162 µM) was 0.567 and the relative viability (RERF-LC-KJ; first compound 1 µM) was 0.489.
